How the values were obtained:
isolated adipocytes = assay: lipogenesis assay (incorporation of labelled glucose into lipids of isolated adipocytes); type: cell-based, rat; settings: 10 μl of stock solution in final volume of 1.25 ml
Protocol: The activation of lipogenesis is monitored by measuring the incorporation of uniformly labelled glucose into lipids of isolated adipocytes as described by Rodbell in J. Biol. Chem. (1964) 239, 375-380.
For the lipogenesis assay, 10 μl of the stock solution is added to a final volume of 1.25 ml.

[1] = infusion; normal rats given a glucose load or streptozotocin-treated rats; cited from earlier work

Molecule | Lipogensis (% stimulation) (isolated adipocytes) | activity of glycogen synthase I [1] | plasma glucose [1]
Insulin | 273% |  | 
OC1C(O)C(O)C(O)C(O)C1O (stereo not drawn) [chiro-inositol] |  | enhanced activity of glycogen synthase I | decreased plasma glucose

Source: patent publication US6106822A, “Hormone and growth factor phosphoglycokine mimetics from mycobacterium” (University College of London, priority 1995, dated 2000)
